Read-outs that look alike come from different tables or passages of the source.
What was measured:
Format in all cases: biochemical
[1] = biological target: T1, TAOK2 (Homo sapiens, UniProt Q9UL54); assay: ExpresS Diversity Kinase Profile, Cerep (LANCE): TAOK2
T1 sequence (Q9UL54 1-1235): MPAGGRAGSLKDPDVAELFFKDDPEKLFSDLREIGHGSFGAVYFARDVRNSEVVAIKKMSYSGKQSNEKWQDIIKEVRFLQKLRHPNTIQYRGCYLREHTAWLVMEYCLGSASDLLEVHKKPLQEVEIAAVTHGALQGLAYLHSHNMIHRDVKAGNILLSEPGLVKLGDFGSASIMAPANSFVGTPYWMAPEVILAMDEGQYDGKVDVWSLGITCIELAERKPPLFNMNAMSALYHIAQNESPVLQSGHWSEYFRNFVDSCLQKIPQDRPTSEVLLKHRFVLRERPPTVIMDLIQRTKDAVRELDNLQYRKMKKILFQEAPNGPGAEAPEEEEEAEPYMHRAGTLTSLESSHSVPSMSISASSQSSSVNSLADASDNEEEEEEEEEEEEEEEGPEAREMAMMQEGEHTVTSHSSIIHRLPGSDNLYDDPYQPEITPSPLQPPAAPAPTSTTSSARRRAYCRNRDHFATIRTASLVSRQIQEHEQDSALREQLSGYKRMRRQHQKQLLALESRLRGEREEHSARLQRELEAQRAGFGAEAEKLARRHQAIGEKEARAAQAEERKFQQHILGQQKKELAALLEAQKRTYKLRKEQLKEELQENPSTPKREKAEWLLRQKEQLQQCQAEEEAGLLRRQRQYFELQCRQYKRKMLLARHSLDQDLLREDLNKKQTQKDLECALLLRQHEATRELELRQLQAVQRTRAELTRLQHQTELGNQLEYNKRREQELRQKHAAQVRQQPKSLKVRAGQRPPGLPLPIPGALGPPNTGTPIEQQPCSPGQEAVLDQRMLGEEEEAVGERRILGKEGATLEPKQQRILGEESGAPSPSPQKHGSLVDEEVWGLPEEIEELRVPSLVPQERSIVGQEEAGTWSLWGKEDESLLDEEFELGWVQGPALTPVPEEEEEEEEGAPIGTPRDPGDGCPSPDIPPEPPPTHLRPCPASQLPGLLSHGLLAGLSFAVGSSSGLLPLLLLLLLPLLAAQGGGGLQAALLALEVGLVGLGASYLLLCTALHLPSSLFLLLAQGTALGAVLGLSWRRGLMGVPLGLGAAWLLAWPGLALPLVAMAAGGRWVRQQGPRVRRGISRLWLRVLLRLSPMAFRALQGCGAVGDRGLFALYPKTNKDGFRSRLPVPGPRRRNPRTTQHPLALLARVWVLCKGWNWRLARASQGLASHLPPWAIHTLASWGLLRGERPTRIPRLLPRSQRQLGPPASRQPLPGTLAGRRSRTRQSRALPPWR

[2] = biological target: RAF-1 (Homo sapiens, UniProt P04049); assay: ExpresS Diversity Kinase Profile, Cerep (LANCE): RAF-1; conditions: for inhibition at 150 µM: RAF-1
[3] = biological target: T2, JAK3 (Homo sapiens, UniProt P52333); assay: ExpresS Diversity Kinase Profile, Cerep (LANCE): JAK3
T2 sequence (P52333 1-1124): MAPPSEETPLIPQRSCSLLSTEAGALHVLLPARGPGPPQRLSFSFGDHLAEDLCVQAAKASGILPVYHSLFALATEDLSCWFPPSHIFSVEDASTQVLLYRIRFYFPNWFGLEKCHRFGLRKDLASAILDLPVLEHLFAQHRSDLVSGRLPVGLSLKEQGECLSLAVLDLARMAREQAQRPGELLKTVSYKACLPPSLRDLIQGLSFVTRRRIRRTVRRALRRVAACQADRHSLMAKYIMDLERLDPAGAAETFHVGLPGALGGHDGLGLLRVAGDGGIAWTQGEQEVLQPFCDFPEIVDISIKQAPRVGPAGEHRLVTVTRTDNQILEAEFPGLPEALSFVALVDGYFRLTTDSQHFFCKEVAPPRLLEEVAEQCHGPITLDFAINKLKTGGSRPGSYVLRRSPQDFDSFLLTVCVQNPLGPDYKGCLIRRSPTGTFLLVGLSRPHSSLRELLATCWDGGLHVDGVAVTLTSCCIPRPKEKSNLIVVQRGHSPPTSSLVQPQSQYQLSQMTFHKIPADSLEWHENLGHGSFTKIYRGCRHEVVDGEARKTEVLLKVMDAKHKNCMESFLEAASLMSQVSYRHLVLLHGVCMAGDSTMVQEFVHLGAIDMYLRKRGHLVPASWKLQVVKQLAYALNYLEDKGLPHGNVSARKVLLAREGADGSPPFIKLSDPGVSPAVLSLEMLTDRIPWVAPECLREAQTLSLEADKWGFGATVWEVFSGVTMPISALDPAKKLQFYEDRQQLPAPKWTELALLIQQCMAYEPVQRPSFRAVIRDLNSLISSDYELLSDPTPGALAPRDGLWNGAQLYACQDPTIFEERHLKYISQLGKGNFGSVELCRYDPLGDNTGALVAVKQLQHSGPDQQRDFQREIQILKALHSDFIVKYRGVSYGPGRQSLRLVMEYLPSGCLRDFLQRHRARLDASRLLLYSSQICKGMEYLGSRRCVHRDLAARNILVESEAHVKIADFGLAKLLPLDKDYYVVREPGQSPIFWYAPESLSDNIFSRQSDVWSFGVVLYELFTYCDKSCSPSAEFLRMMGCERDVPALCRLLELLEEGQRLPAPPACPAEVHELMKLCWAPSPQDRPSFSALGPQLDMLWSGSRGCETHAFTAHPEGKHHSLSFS

[4] = n = 2, read-out: % Inhibition of control values, Mean
[5] = read-out: % Inhibition of control values, 1st measurement
[6] = read-out: % Inhibition of control values, 2nd measurement

Chain of RAF-1 (P04049 whole entry): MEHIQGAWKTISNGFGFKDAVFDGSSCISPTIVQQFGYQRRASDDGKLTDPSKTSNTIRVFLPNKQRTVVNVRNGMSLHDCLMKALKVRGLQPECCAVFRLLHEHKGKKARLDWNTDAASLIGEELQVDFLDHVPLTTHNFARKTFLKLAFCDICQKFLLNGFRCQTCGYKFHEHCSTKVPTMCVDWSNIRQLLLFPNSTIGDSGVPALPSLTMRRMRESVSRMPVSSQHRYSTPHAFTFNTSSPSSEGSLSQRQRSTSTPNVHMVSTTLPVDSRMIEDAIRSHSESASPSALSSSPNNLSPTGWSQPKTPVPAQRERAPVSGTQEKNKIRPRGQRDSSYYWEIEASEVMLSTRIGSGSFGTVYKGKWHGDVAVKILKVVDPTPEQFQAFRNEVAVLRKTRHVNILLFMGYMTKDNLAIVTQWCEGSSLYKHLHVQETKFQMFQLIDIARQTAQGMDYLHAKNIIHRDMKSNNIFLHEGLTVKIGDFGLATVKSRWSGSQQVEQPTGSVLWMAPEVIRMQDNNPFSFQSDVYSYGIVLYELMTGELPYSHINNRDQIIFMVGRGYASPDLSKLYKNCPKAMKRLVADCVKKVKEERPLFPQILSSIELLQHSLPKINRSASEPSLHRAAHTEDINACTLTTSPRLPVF

SMILES	nHill ([1]; control)	nHill ([2]; RAF1, control)	nHill ([3]; control)	inhibition at 150 µM ([1]; Flag: Interference, read-out: % Inhibition of control values, 1st measurement) [%]	inhibition at 150 µM ([1]; Flag: Interference, read-out: % Inhibition of control values, 2nd measurement) [%]	inhibition at 150 µM ([1]; n = 2, Flag: Interference, read-out: % Inhibition of control values, Mean) [%]	inhibition at 150 µM [2, 4] [%]	inhibition at 150 µM [2, 5] [%]	inhibition at 150 µM [2, 6] [%]	inhibition at 150 µM [3, 4] [%]	inhibition at 150 µM [3, 5] [%]	inhibition at 150 µM [3, 6] [%]
CN[C@@H]1C[C@H]2O[C@@](C)([C@@H]1OC)n1c3ccccc3c3c4c(c5c6ccccc6n2c5c31)C(=O)NC4 [Staurosporine, reference compound]	1.6	2.4	2.2									
CC1(C)CCC2=C(O1)c1ccccc1C(=O)C2=O [β-Lapachone]				32.9	33.1	33	57.3	55.4	59.3	69	83.6	54.5
